Here are results for three compounds from PMC3645702, “Protein Tyrosine Nitration and Thiol Oxidation by Peroxynitrite—Strategies to Prevent These Oxidative Modifications” (International Journal of Molecular Sciences, 2013).

The target in experiment [1] is T1, human prostacyclin synthase (PGIS), microsomal, partially purified (Homo sapiens, UniProt Q16647).
T1 construct: gene PTGIS; overexpressed in Sf21 insect cells
T1 sequence (Q16647 1-500): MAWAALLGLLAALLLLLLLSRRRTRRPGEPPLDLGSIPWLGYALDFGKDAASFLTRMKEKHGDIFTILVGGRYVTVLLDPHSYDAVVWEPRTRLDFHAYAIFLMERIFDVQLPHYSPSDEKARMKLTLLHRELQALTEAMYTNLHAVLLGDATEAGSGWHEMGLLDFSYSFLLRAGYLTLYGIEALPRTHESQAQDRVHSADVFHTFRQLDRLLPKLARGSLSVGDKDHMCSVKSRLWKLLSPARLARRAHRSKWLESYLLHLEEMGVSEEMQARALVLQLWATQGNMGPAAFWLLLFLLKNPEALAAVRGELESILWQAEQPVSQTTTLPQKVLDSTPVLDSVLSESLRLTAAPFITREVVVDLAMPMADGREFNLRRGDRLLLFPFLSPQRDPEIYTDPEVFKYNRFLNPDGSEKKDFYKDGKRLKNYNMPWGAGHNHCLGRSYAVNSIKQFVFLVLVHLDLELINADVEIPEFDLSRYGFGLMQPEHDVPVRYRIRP
The experiment can be described thus: 3-nitrotyrosine formation, Western blot and HPLC after pronase. The class given is biochemical. From the text:
3-nitrotyrosine formation, Western blot and HPLC after pronase on human prostacyclin synthase (PGIS), microsomal, partially purified | peroxynitrite-dependent nitration of an over-expressed and partially purified human prostacyclin synthase

Experiment [2] concerns the target T2, alcohol dehydrogenase (ADH) (Saccharomyces cerevisiae, UniProt P00330).
T2 construct: gene ADH1
T2 sequence (P00330 2-348): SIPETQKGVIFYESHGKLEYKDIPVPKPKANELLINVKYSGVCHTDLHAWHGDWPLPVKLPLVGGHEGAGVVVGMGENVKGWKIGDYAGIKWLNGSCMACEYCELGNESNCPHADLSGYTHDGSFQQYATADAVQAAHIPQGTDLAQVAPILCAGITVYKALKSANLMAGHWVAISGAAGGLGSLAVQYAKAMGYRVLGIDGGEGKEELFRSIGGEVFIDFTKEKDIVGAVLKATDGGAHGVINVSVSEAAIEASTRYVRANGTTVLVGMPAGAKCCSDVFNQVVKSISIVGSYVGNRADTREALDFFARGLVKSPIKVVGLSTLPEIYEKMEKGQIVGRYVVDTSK
The experiment can be described thus: NADH formation at […] nm. The class given is biochemical.

As usually defined, the EC50 is the concentration at which the effect is half-maximal. A low value points to an effect from little substance. With `O=NOO` [peroxynitrite], in experiment [1], the 50% effective concentration (EC50) was 5 µM.
One may read the inhibition as the relative decrease from the control value, in per cent. Low readings indicate a response near the control, high ones a response far below the control. Consider `S=c1[nH]c(=S)c2[nH]cnc2[nH]1` [2,6-Dithiopurine], for which testing at 50 µM in experiment [2] gave an inhibition of 20%.
In experiment [2], `S=c1cc[nH]c(=S)[nH]1` [2,6-Dithiopyrimidine] gave an inhibition at 50 µM of 20%.
